# Where two headings read alike, the source gives them in different places. Marks after values point to notes of the source that are not given here. Residues, ends and D or L forms follow the SMILES beside them.
# Assays:
# rats = experiment: Chronic toxicity, 6 months; format: in vivo; conditions: intramuscularly daily during 6 months, 1 μg/kg, 0.1 mg/kg, 1 mg/kg
# Protocol: The animals were exposed daily to a single administration of the drug intramuscularly in doses 1 μg/kg, 0.1 mg/kg, 1 mg/kg in 0.5 ml of sodium chloride solution during 6 months. Behaviour of the animals, their rations and water consumption, the state of their hair integument and mucous membranes were registered. The animals were weighed daily during the first 3 months of the experiment and then once a month. Haematological and biochemical studies were carried out 3 months after the onset of drug administration and upon experiment completion. Functions of the cardiovascular system, liver, pancreas, kidneys, and adrenal glands were assessed. Upon the end of drug administration some animals were subjected to pathomorphological examination for the purpose of estimating the condition of various sections of the brain and spinal marrow, heart, aorta, lungs, liver, kidneys, organs of the endocrine and immune systems.
# catalase [1] = experiment: Catalase activity in 14-day old flies of HEM strain; format: in vivo, Drosophila melanogaster of HEM strain; conditions: 0.00001% of culture medium weight
# Source text: (§1) L-Ala-L-Glu-L-Asp-Gly tetrapeptide (SEQ ID NO: 1) was applied in Drosophila melanogaster larvae of the 2nd age of HEM strain selected for a high ageing rate (20). HEM strain is characterised by the unique dynamics of embryonic mortality, which consists in an increased frequency of early embryonic lethal outcomes from 65% on the 1st day of egg-laying up to 95% on the 4th day, in a reduced average life span (29 days), and in a raised intensity of lipid peroxide oxidation.
# (§2) L-Ala-L-Glu-L-Asp-Gly tetrapeptide (SEQ ID NO: 1) was added in proportion 0.00001% of the culture medium weight, which was an extremely low dose. The doses described in literature on the influence of various substances on Drosophila melanogaster usually ranged from 0.001 to 0.01%.
# Biochemical parameters were studied on 14-day old flies. Among them the activity of catalase activity and the intensity of tissue chemoluminescence were analysed (21, 22, 23). Catalase is the basic enzyme of anti-oxidation defence. […] Luminol-dependent chemoluminescence, induced by hydrogen peroxide, reflects the stage of active oxygen forms in tissues. Thus, a decrease in the chemoluminescence intensity indicates an increase in the organism ability to resist oxidative stress.
# catalase [2] = experiment: Catalase activity in homogenates of 14 days old flies of LA strain; format: in vivo, Drosophila melanogaster of LA strain
# Protocol: The impact produced by L-Ala-L-Glu-L-Asp-Gly tetrapeptide (SEQ ID NO: 1) on catalase activity, the content of the products of lipid peroxide oxidation (LPO), life span, and the ageing rate were studied in Drosophila melanogaster of LA strain.
# L-Ala-L-Glu-L-Asp-Gly tetrapeptide (SEQ ID NO: 1) was applied in the larvae of the 3rd age in dose 0.00001% of the culture medium weight, which constituted approximately 0.015 mg/100 ml. Catalase activity was estimated by generally accepted methods in the homogenates of adult 14 days old flies. The experiment was carried out with a subsequent repetition.
# Regression and dispersal analyses served as the basic technique of statistic processing. The authenticity of differences was confirmed by the method of minimal relevant diversity.
# [3] = test system: Drosophila melanogaster of “wild” Canton-S strain; conditions: for ALS ± statistic errors / Alterations in ALS: Canton-S; for Alterations in ALS: versus control
# Protocol: In this research Drosophila melanogaster of “wild” Canton-S strain were employed.
# L-Ala-L-Glu-L-Asp-Gly tetrapeptide (SEQ ID NO: 1) in the solution form was introduced into the culture medium provided for the growth of insects, which was cooled down to 50-60° C., with subsequent careful stirring and depositing it into test tubes.
# To make the conditions of both the control and experimental population development identical, an amount of sodium chloride equal to that used for L-Ala-L-Glu-L-Asp-Gly tetrapeptide (SEQ ID NO: 1) solution was introduced into the culture medium for the control. The concentration of all the substances employed was calculated by the ratio to the mass of the culture medium provided for reproduction.
# 4-day old female flies underwent a randomly selected mating with males for 72 hours, one couple per each test tube, after which parental couples were removed from the test tubes. To form every new generation the posterity of 50 to 80 couples was used.
# Life span (LS) was investigated on laboratory populations, each of them consisting of 90 individuals of each sex. Immediately after hatching the flies were randomly placed in test tubes, 10 individuals in each. Substitution of the culture medium was carried out 3 times a week.
# Average values (ALS) and standard errors calculated by the traditional method were applied as life span distribution parameters. Average values were compared to each other with the application of Student t-criterion.
# For experimental study 6 concentrations of L-Ala-L-Glu-L-Asp-Gly tetrapeptide (SEQ ID NO: 1) were selected: 0.01×, 0.1×, 1×, 5×, 7.5×, and 12.5×10^−6% of the culture medium weight.
# [4] = test system: Drosophila melanogaster of HEM strain; experiment: Life span and ageing rate, HEM strain; format: in vivo; conditions: for 90% (the age, which 90% of the individuals reach) / ALS (average life span) / MRDT (mortality-rate doubling time) / Me (median life span) / R · 10^−2 (parameter of Gomperz equation): 0.00001% of medium
# Source text: as §1, §2
# [5] = females, concentration 0.01 ×10^−6%
# [6] = females, concentration 0.1 ×10^−6%
# [7] = females, concentration 1.0 ×10^−6%
# [8] = females, concentration 5.0 ×10^−6%
# [9] = females, concentration 7.5 ×10^−6%
# [10] = females, concentration 12.5 ×10^−6%
# [11] = males, concentration 0.01 ×10^−6%
# [12] = males, concentration 0.1 ×10^−6%
# [13] = males, concentration 1.0 ×10^−6%
# [14] = males, concentration 5.0 ×10^−6%
# [15] = males, concentration 7.5 ×10^−6%
# [16] = males, concentration 12.5 ×10^−6%
structure (smiles),measurement,setting,value
"C[C@H](N)C(=O)N[C@@H](CCC(=O)O)C(=O)N[C@@H](CC(=O)O)C(=O)NCC(=O)O [L-Ala-L-Glu-L-Asp-Gly tetrapeptide, L-alanyl-L-glutamyl-L-aspartyl-glycine] (H-AEDG-OH)","Pathologic alterations (general state, blood indices, intrinsic organs, cardiovascular, respiratory, liver, kidney)",rats,no pathologic alterations
same,"Side effects, chronic toxicity",rats,absence of side effects
same,Catalase activity,catalase [1]; females,98.8 ± 1.62 mmole H2O2/mg of protein per min.
same,Catalase activity,catalase [1]; males,132.3 ± 3.68 mmole H2O2/mg of protein per min.
same,Specific activity of catalase,catalase [2]; females,42.57 μmole H2O2/mg of protein per min.
same,Specific activity of catalase,catalase [2]; males,57.44* μmole H2O2/mg of protein per min.
same,ALS ± statistic errors,[3]; [5],35.41 ± 1.07
same,Alterations in ALS,[3]; [5],13.4%
same,Alterations in ALS,"[3]; females, concentration 0.01 ×10^−6%, listed as L-Ala-L-Glu-L-Asp-Gly",+13.4%
same,ALS ± statistic errors,[3]; [6],35.41 ± 1.07
same,Alterations in ALS,[3]; [6],11.8%
same,Alterations in ALS,"[3]; females, concentration 0.1 ×10^−6%, listed as L-Ala-L-Glu-L-Asp-Gly",+11.8%
same,ALS ± statistic errors,[3]; [7],35.76 ± 1.35
same,Alterations in ALS,[3]; [7],−1.1%
same,ALS ± statistic errors,[3]; [8],38.04 ± 1.56
same,Alterations in ALS,[3]; [8],+3.2%
same,ALS ± statistic errors,[3]; [9],31.16 ± 1.21
same,Alterations in ALS,[3]; [9],−7.6%
same,ALS ± statistic errors,[3]; [10],37.06 ± 1.12
same,Alterations in ALS,[3]; [10],+5.6%
same,Duration of stage development (lack of genotoxic effect),[3]; in vivo,did not alter the duration of their stage development
same,ALS ± statistic errors,[3]; [11],36.47 ± 1.09
same,Alterations in ALS,[3]; [11],+12.0%
same,ALS ± statistic errors,[3]; [12],34.85 ± 1.18
same,Alterations in ALS,[3]; [12],+10.8%
same,ALS ± statistic errors,[3]; [13],36.77 ± 1.44
same,Alterations in ALS,[3]; [13],+13.3%
same,ALS ± statistic errors,[3]; [14],37.74 ± 1.16
same,Alterations in ALS,[3]; [14],+11.3%
same,ALS ± statistic errors,[3]; [15],39.98 ± 0.99
same,Alterations in ALS,[3]; [15],−0.03%
same,ALS ± statistic errors,[3]; [16],33.96 ± 1.01
same,Alterations in ALS,[3]; [16],−9.0%
same,"90% (the age, which 90% of the individuals reach)",[4]; females,76 days
same,ALS (average life span),[4]; females,48 + days
same,MRDT (mortality-rate doubling time),[4]; females,3.9
same,Me (median life span),[4]; females,48.0 days
same,R · 10^−2 (parameter of Gomperz equation),[4]; females,4.0 + days^−1
same,"90% (the age, which 90% of the individuals reach)",[4]; males,62 days
same,ALS (average life span),[4]; males,42 + 1.3 days
same,MRDT (mortality-rate doubling time),[4]; males,3.8
same,Me (median life span),[4]; males,38.0 days
same,R · 10^−2 (parameter of Gomperz equation),[4]; males,4.5 + days^−1
same,Increase of the average life span,[4]; versus control,26%
same,Reduction of the population real ageing rate (Gomperz parameter),[4]; versus control,40%

# From patent US6727227B1, “Tetrapetide revealing geroprotective effect, pharmacological substance on its basis, and the method of its application” (Obschestvo S Ogranichennoi Otvetstven-Nostiju “Klinika …, priority 2002, dated 2004)
